Experimental data as given in US20190314379A1, “METHODS OF USING CANNABINOID CB2 RECEPTOR AGONIST COMPOSITIONS TO SUPPRESS AND PREVENT OPIOID TOLERANCE AND WITHDRAWAL IN A SUBJECT” (Indiana University Research and Technology Corporation, priority 2018, published 2019).

Key:
[1] = system: Walker 256 tumor-bearing rats; settings: cited from earlier work
keratinocytes = settings: cited from earlier work
[2] = system: μ-opioid receptor expression; settings: spinal cord and dorsal root ganglia (DRG); cited from earlier work
mouse CB2 receptors = molecular target: T1, mouse CB2 receptors (Mus musculus, UniProt P47936); experiment: Forskolin-stimulated cAMP accumulation (cyclase), HEK mCB2; type: cell-based
T1 construct: expressed in transfected cells
T1 sequence (P47936 whole entry): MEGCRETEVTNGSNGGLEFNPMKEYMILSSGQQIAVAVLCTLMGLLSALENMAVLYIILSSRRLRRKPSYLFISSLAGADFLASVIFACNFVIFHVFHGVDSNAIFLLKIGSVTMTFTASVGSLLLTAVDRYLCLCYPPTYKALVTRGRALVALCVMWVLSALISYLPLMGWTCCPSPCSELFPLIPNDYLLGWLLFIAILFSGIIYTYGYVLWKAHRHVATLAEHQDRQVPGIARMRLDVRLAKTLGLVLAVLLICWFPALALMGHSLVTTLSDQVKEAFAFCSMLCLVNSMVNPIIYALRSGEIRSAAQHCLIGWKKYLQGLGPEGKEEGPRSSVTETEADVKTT

[3] = system: paclitaxel-induced cold allodynia; experiment: Paclitaxel-induced cold allodynia (acetone); type: in vivo, mouse
Experimental: (§1) In all studies, the experimenter was blinded to the treatment condition, and mice were randomly assigned to experimental conditions. Paclitaxel (4 mg/kg i.p.) was administered four times on alternate days (cumulative dose, 16 mg/kg i.p.) to induce neuropathic pain as described previously by our group (Deng et al., 2015). Control mice received an equal volume of cremophor-vehicle. Development of paclitaxel-induced allodynia was assessed on day 0, 4, 7, 11, and 14.
(§2) Effects of pharmacologic manipulations were assessed at 30 minutes after drug administration during the maintenance phase of paclitaxel-induced neuropathy (i.e., beginning day 18-20 after initial paclitaxel injection).
(§3) In experiments 2 and 3, pharmacologic manipulations were performed once daily for 12 consecutive days in each of the two phases of chronic treatment. Four days separated phase 1 and phase 2 chronic dosing in all studies comprising two phases of chronic dosing. Experiments 2 and 3 were performed concurrently using overlapping cohorts that were tested with a single vehicle (phase 1), vehicle (phase 2) group.
(§4) We then assessed the antiallodynic efficacy of chronic systemic administration of vehicle or morphine (10 mg/kg per day i.p.×12 days) administered during phase 2 in the same animals. Responsiveness to mechanical and cold stimulation was evaluated on treatment days 1, 4, 8, and 12 during phase 1 and on treatment days 16, 19, 23, and 27 during phase 2 (i.e., phase 2 started on day 16).
(§5) In experiment 4, we evaluated the impact of coadministration of morphine (10 mg/kg i.p.×12 days) with a submaximal dose of LY 2828360 (0.1 mg/kg per day i.p.×12 days) in WT and CB2 KO mice.
Response time (seconds) spent attending to (i.e., elevating, licking, biting, or shaking) the paw stimulated with acetone (Sigma-Aldrich) was measured in triplicate for each paw to assess cold allodynia as previously published. An acetone bubble (approximately 5 to 6 p.1) formed at the end of a blunt 1-ml syringe hub was gently applied to the plantar surface of the hind paw. Care was taken not to apply mechanical stimulation to the hind paw with the syringe itself. The total time the animal spent attending to the acetone-stimulated paw (i.e., elevation, shaking, or licking) was recorded over 1 minute after acetone application. Acetone was applied three times to each paw with a 3-minute interval between applications. Values for each animal were calculated as the mean of six determinations of acetone responsiveness derived from each mouse.

human CB2 = human CB2 (Homo sapiens, UniProt P34972); experiment: Forskolin-stimulated cAMP accumulation (cyclase), HEK hCB2; type: cell-based; design: expressed in transfected cells
Chain of human CB2 (P34972 whole entry, the tested form may be a part): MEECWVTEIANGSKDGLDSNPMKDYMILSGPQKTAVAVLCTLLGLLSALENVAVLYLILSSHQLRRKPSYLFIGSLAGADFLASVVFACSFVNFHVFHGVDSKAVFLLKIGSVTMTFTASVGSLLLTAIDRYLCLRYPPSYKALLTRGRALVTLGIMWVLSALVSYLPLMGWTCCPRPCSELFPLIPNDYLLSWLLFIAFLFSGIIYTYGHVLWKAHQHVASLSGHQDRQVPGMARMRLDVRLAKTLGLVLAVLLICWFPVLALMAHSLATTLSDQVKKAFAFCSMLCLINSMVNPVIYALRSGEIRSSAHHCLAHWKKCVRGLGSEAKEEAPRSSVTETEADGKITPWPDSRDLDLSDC

[4] = system: paclitaxel-induced neuropathic pain; settings: 8 days once daily (i.p.) dosing or chronic infusion over 4 weeks; cited from earlier work
[5] = system: paclitaxel-induced mechanical allodynia; experiment: Paclitaxel-induced mechanical allodynia (electronic von Frey); type: in vivo, mouse
Experimental: as §1, §2, §3, §4, §5
Paw withdrawal thresholds (grams) to mechanical stimulation were measured in duplicate for each paw using an electronic von Frey anesthesiometer supplied with a 90-g probe (model Alemo 2390-5; IITC, Woodland Hills, Calif.) as described previously. Mice were placed on an elevated metal mesh table and allowed to habituate under individual, inverted plastic cages to the testing platform for at least 20 minutes until exploratory behavior had ceased. Alter the habituation period, a force was applied to the midplantar region of the hind paw with a semiflexible tip connected to the anesthesiometer. Mechanical stimulation was terminated when the animal withdrew its paw, and the value of the applied force was recorded in grams. Mechanical paw withdrawal thresholds were obtained in duplicate for each paw and are reported as the mean of duplicate determinations from each animal, averaged across animals, for each group.

[6] = system: naloxone-precipitated opioid withdrawal; experiment: Naloxone-precipitated opioid withdrawal in paclitaxel-treated mice; type: in vivo, mouse; settings: paclitaxel-treated WT mice
Experimental: Alter the last injection of morphine (on day 28 for two-phase treatments, on day 13 for coadministration treatment), we challenged WT or CB2KO mice from experiments 2, 3, and 4 with vehicle, followed 30 minutes later by naloxone (5 mg/kg i.p.) to precipitate opioid receptor-mediated withdrawal. Mice were video-recorded for subsequent scoring of withdrawal-like behaviors for a 30-minute interval after challenge with vehicle or naloxone.
Mice were video-taped, and the number of jumps was scored in 5-minute intervals for a total observation period of 30 minutes after challenge with either saline or naloxone (5 mg/kg i.p.).

[7] = system: preclinical inflammatory, postoperative, and neuropathic pain; settings: dose- and time-dependent; cited from earlier work
[8] = system: morphine analgesia and antinociceptive tolerance; settings: rats, with morphine; cited from earlier work
[9] = system: formalin model of inflammatory pain; settings: coadministration; cited from earlier work
[10] = WT mice, 5 mg/kg per day i.p.×12 days
[11] = WT mice, AM1710 5 mg/kg per day×12 days phase I, morphine 10 mg/kg per day×12 days phase II
[12] = paclitaxel-treated WT mice, 5 mg/kg per day i.p.×12 days, vs vehicle

Structure (SMILES): CN1CCCCC1Cn1cc(C(=O)c2cc([N+](=O)[O-])ccc2I)c2ccccc21 (centres unmarked) [AM1241]
- morphine tolerance ([1]; low dose coadministered with morphine): reduced the morphine tolerance
- opioid-mediated antinociception, hotplate and mechanical sensitivity ([1]; tumor-bearing rats): modest enhancement of opioid-mediated antinociception
- release of β-endorphin (keratinocytes): stimulated the release of the endogenous opioid β-endorphin
- μ-opioid receptor expression [2]: upregulated μ-opioid receptor expression

Structure (SMILES): CCCCCCC(C)(C)c1cc(O)c2c(c1)oc(=O)c1ccc(OC)cc12 [AM1710, 3-(1,1-dimethyl-heptyl)-1-hydroxy-9-methoxy-benzo(c) chromen-6-one]
- time by which inhibition of forskolin-stimulated cAMP dissipated (mouse CB2 receptors; HEK mCB2, 1 μM): ≤ 15 min
- forskolin-induced cAMP levels (mouse CB2 receptors; HEK mCB2, 1 μM final concentration, 5 minutes): attenuated forskolin-induced cAMP levels
- cAMP levels in the absence of forskolin (mouse CB2 receptors; HEK mCB2, compound alone): alone did not change cAMP levels
- cAMP levels in the absence of forskolin at 10 minutes (mouse CB2 receptors; HEK mCB2, compound alone, 10 minutes): decreased cAMP levels below the basal/no forskolin level
- forskolin-stimulated cAMP after PTX treatment (mouse CB2 receptors; mCB2, 1 μM, PTX 300 ng/ml overnight): abolished the decrease in forskolin-stimulated cAMP
- tolerance to antiallodynic effects over repeated administration, cold [3, 10]: tolerance did not develop
- development of tolerance to phase II morphine, cold [3, 11]: delayed the development of tolerance to morphine
- cold response time, chronic phase I treatment [3, 12]: reduced the heightened cold response time
- cAMP levels, compound alone (no forskolin) (human CB2; HEK hCB2): alone did not change the cAMP levels
- duration of decrease in cAMP (human CB2; HEK hCB2): up to 30 minutes
- inhibition of forskolin-induced cAMP levels, time course (human CB2; HEK hCB2, 1 μM final concentration): induced a delayed and persistent inhibition of forskolin-stimulated cAMP levels, starting at 10 minutes
- inhibition of forskolin-stimulated cAMP after PTX pretreatment (human CB2; HEK hCB2, 1 μM final concentration, PTX): blocked the inhibition of forskolin-stimulated cAMP
- cAMP levels vs forskolin alone in PTX-treated cells (human CB2; HEK hCB2, with forskolin, 5 minutes, PTX): increased cAMP levels compared with forskolin alone
- paclitaxel-induced neuropathic pain, tolerance and physical dependence [4]: suppresses paclitaxel-induced neuropathic pain without producing tolerance or physical dependence
- tolerance to antiallodynic effects over repeated administration, mechanical [5, 10]: tolerance did not develop
- development of tolerance to phase II morphine, mechanical [5, 11]: delayed the development of tolerance to morphine
- mechanical paw withdrawal thresholds, chronic phase I treatment [5, 12]: increased mechanical paw withdrawal thresholds
- naloxone-precipitated jumps, AM1710 (I)-morphine (II) vs vehicle (I)-vehicle (II) [6]: did not differ
- number of naloxone-precipitated jumps, AM1710 (I)-morphine (II) vs vehicle (I)-morphine (II) ([6]; AM1710 5 mg/kg i.p.×12 days, morphine 10 mg/kg i.p.×12 days): lower

Structure (SMILES): CCCn1c(C)c(C(=O)c2cccc3ccccc23)c2ccccc21 [JWH015]
- pain inhibition on coadministration with morphine [7]: synergistically inhibited preclinical inflammatory, postoperative, and neuropathic pain
- morphine analgesia and morphine antinociceptive tolerance [8]: increased morphine analgesia and morphine antinociceptive tolerance

Structure (SMILES): CCCC(C)(C)c1ccc2c(c1)OC(C)(C)[C@@H]1CC=C(C)C[C@@H]21 [JWH133]
- opioid-sparing effects [9]: exhibited opioid-sparing effects
